Where “and” joins values, the source holds several entries; their conditions need not be identical. Identical values can stand only once. Entries after “also recorded” stand apart in the source; their conditions may differ.
Columns and labels:
[1] = Serum calcium and phosphorus in mdr1a-/- colitis study; type: in vivo, mouse; conditions: day 38
Protocol: (§1) All mice were necropsied on day 38 post initial inoculation. Mice were euthanized by CO2 asphyxiation. Blood was obtained by intracardiac puncture and collected in serum separator tubes. Serum was harvested and stored at −80° C. Colons were dissected below the cecum and just above the anus, and the contents of the lumen were removed. Sections of the proximal, middle, and distal colon regions were fixed in 10% neutral buffered formalin for histopathological analysis.
(§2) Serum clinical chemistry analysis was performed on the Olympus AU400 using standard tests and protocols. Calcium and phosphorus measurements were performed on undiluted serum for all samples. Serum cytokines and chemokines were assayed by Lincoplex mouse cytokine/chemokine muliplex immunoassasy (Millipore; Billerica, Mass.) per manufacturer instructions.
(§3) Results for serum analytes were expressed as the mean±standard error of the mean (SEM). A one-way ANOVA with Tukey's post test was performed using GraphPad Prism. A p-value of 0.05 was used in the calculation to determine whether there were significant differences between any two groups. Results for disease onset were expressed as a standard survival curve. A Log-Rank (Mantel-Cox) Test was performed using GraphPad Prism to determine significance. A p-value of 0.05 was used in the calculation to determine whether there were significant differences between any two groups. Results for clinical score and histology score were expressed as the mean±SEM. A Cochran-Mantel-Haenszel mean score test was performed using SAS software. A p-value of 0.05 was used in the calculation to determine whether there were significant differences between any two groups.

IP-10 = experiment: Serum IP-10 in mdr1a-/- colitis study; type: in vivo, mouse
Protocol: as §1, §2, §3

[2] = system: colitis in mdr1a-/- mice induced by H. bilis; experiment: Colitis in mdr1a-/- mice infected with Helicobacter bilis (clinical score, disease onset, histology); type: in vivo, mouse; conditions: for Total LI score (Max = 12), individual animals / GI Inflammation LI DISTAL, individual animals / GI Inflammation LI MIDDLE, individual animals / GI Inflammation LI PROXIMAL, individual animals: listed as R-B; for GI Inflammation LI DISTAL, individual animals / GI Inflammation LI MIDDLE, individual animals / GI Inflammation LI PROXIMAL, individual animals: score 0-4; for disease onset compared to vehicle control group: Log-Rank test, p-value=0.04
[3] = system: 5% DSS induced colitis in SJL/J mice; experiment: DSS-induced colitis in mice, histopathologic inflammation score of large intestine; type: in vivo, mouse
From the text: Animals. Female SJL/J mice aged 8-10 weeks were used for this study, purchased from Jackson Laboratories (Bar Harbour, Me.). Female Spraque-Dawley rats (approximately 150-300 grams) were purchased from Charles River Laboratories Inc. (Wilmington, Mass.). Mdr1a−/− mice (FVB.129P2-Abcb1a^tm1BorN7), weight 20-21 g, 8 weeks at initiation of experiments, were housed and maintained (5 per cage) in the animal facility at Amgen Washington. All animals were cared for according to the standard protocols of the Amgen Institutional Animal Care and Use Committee.
Chemical reagents. Dextran sodium sulfate (DSS) with molecular mass 36-50 kDa was purchased from ICN Chemicals, Aurora, Ohio. The DSS solution was prepared as a 5% w/v solution in sterile water (Baxter Healthcare Corporation) and sterile filtered through a 0.45 μm filter before being added to drinking water. Water for the negative control groups was similarly filtered. FK506, (also known as Tacrolimus, active ingredient in Prograf®), chemical name [3S-[3R*[E(1S*,3S*,4S*)],4S*,5R*,8S*,9E,12R*,14R*,15S*,16R*,18S*,19S*,26aR*]]-5,6,8,11,12,13,14,15,16,17,18,19,24,25,26,26a-hexadecahydro-5,19-dihydroxy-3-[2-(4-hydroxy-3-methoxycyclohexyl)-1-methylethenyl]-14,16-dimethoxy-4,10,12,18-tetramethyl-8-(2-propenyl)-15,19-epoxy-3H-pyrodi[2,1-c][1,4]oxaazacyclotricosine-1,7,20,21(4H, 23H)-tetrone monohydrate, was used as a positive control for the inflammation treatment. Tacrolimus is a macrolide immunosuppressant produced by Streptomyces tsukubaensis. The solution of FK506 (Prograf®, Astellas) was prepared as follows: 0.1 mg/ml solution in phosphate buffered saline (PBS) was prepared by diluting 5 mg/ml stock solution. The animals were dosed with FK506 at 1 mg/kg in 200 μl of PBS.
Calcimimetic solutions (Compound A, 3-(2-chlorophenyl)-N-((1R)-1-(3-(methyloxy)phenyl)ethyl)-1-propanamine, Compound B, (1R)-N-((6-(methyloxy)-4′-(trifluoromethyl)-3-biphenylyl)methyl)-1-phenylethanamine, Compound C, N-(2-chloro-5-((((1R)-1-phenylethyl)amino)methyl)phenyl)-5-methyl-3-isoxazolecarboxamide, and Compound D, N-(2-chloro-5-((((1R)-1-phenylethyl)amino)methyl)phenyl)-2-pyridinecarboxamide) were formulated and dosed in free base equivalents at volumes determined by the pharmacologist. Formulation vehicle was 20% (w/v) Captisol (β-Cyclodextrin Sulfobutyl Ether Sodium Salt, Research Grade from CyDex, Inc.) in water with a final pH of 2.0-2.2 at room temperature, adjusted with HCl and NaOH as required. Final concentrations of DMSO never exceeded 0.1% (v/v).
DSS colitis in mice. All experiments were performed on groups of 8 to 10 SJL-J mice, housed in the same cage. For disease induction, mice were given a 5% DSS ad libitum as drinking water for 9 days.
Postmortem evaluation. Mice and rats were euthanized by CO2 asphyxiation. The large intestine were removed from the carcass, evaluated for gross lesions and three individual non-adjacent segments of proximal, middle and distal large intestine 2 centimeters long were immersed in the Zinc Formalin fix for 24 hours. At the end of 24 hours the sections were washed with tap water and put into 70% ethanol. Each section was then cut into three 3 mm pieces (9 pieces per animal), processed into paraffin blocks, and sections were cut in 5 μm sections and stained with hematoxylin and eosin.
Histopathologic changes of the proximal, middle, and distal small and large intestine was scored as a global assessment of inflammation based on inflammatory infiltrate, edema, mucosal erosions or ulcerations as described in Table 6.
For disease induction, treated mice were given 5% DSS in water ad libitum as drinking water for 9 days as described in Example 1 and were concurrently treated orally during that period with one of the treatments listed in Table 8.
FIG. 1 and Table 8 summarize the effect of the calcimimetic compound B on colonic inflammation in 5% DSS induced colitis. Animals were euthanized with carbon dioxide on day nine post treatment. […]

[4] = Absorption from the gut into the bloodstream
[5] = R-Compound B 10 and 3 mg/kg groups
[6] = 10 mg/kg oral, 5% DSS 9 days, vs Captisol vehicle, p<0.01
[7] = 30 mg/kg oral, 5% DSS 9 days, vs Captisol vehicle

## COc1ccc(CN[C@H](C)c2ccccc2)cc1-c1ccc(C(F)(F)F)cc1 [Compound B, (1R)-N-((6-(methyloxy)-4′-(trifluoromethyl)-3-biphenylyl)methyl)-1-phenylethanamine]
[1]; 3 mg/kg PO daily
  serum phosphorus compared to the S-Compound B treated group only: significant elevation
[1]; 10 mg/kg PO daily
  serum calcium compared to CTLA4 and vehicle control groups: significant calcium reductions
  serum phosphorus levels compared to all control groups: significantly elevated
[1]; both R-Compound B groups (10 and 3 mg/kg PO daily)
  serum calcium levels compared to uninfected controls: significantly reduced
IP-10; 10 mg/kg PO daily, p=0.06
  difference in production of serum IP-10 vs vehicle control group: approached significance
IP-10; treatment groups vs vehicle treated animals
  elevation of serum IP-10: less elevation
[2]; 3 mg/kg PO daily, day 38
  Average LI score: 1.6
  GI Inflammation LI DISTAL, Segment Mean: 0.60
  GI Inflammation LI MIDDLE, Segment Mean: 0.60
  GI Inflammation LI PROXIMAL, Segment Mean: 0.40
  Total LI score (Max = 12), individual animals: 0 (8×) and 8 (2×)
  GI Inflammation LI DISTAL, individual animals: 0 (8×) and 3 (2×)
  GI Inflammation LI MIDDLE, individual animals: 0 (8×) and 3 (2×)
  GI Inflammation LI PROXIMAL, individual animals: 0 (8×) and 2 (2×)
[2]; 3 mg/kg PO daily, first and second animal, listed as R-Compound B
  day on which an animal began showing clinical signs of colitis (disease onset): 17 days and 31 days
[2]; 10 mg/kg PO daily
  day on which animals began showing clinical symptoms (disease onset): 32 days
  disease onset compared to vehicle control group: significantly different
[2]; 10 mg/kg PO daily, listed as R-Compound B
  disease onset compared to vehicle control group: statistically significant difference
[2]; 10 mg/kg PO daily, day 38
  Average LI score: 0.9
  GI Inflammation LI DISTAL, Segment Mean: 0.30
  GI Inflammation LI MIDDLE, Segment Mean: 0.20
  GI Inflammation LI PROXIMAL, Segment Mean: 0.40
  Total LI score (Max = 12), individual animals: 2 and 0 (8×) and 7
  GI Inflammation LI DISTAL, individual animals: 0 (9×) and 3
  GI Inflammation LI MIDDLE, individual animals: 0 (9×) and 2
  GI Inflammation LI PROXIMAL, individual animals: 2 (2×) and 0 (8×)
[2]; 10 mg/kg PO daily, final day (day 38), p<0.05
  clinical scores compared to vehicle group: significantly lower clinical scores
[2]; [5]
  anal inflammation score of animals showing clinical symptoms: none had an anal inflammation score above moderate
  development of diarrhea: no animal developed diarrhea
[2]; day 38, per treatment group (S-Compound B 10 mg/kg, n=5; R-Compound B 10 mg/kg and 3 mg/kg, n=10 each)
  number of animals with clinical symptoms of disease on the final day of the study: one
[2]; each R-Compound B group (10 and 3 mg/kg)
  percentage of animals with colon pathology: 20%
[2]; mdr1a-/- mice, 10 or 3 mg/kg PO daily, listed as R-Compound B
  overall effect on development, onset, incidence and severity of colitis: attenuates the development of colitis; also recorded: delayed the onset of colitis and reduced the severity of disease; also recorded: reduced the incidence and severity of disease; also recorded: inhibited the development and severity of colitis
[2]; per group: R-Compound B 10 and 3 mg/kg each, S-Compound B 10 mg/kg
  animals with colitis / colon pathology by histology: 2 out of 10
[3]; 10 mg/kg oral, 5% DSS 9 days
  animals lacking inflammatory changes (colon normal): Four out of ten
[3]; [6]
  mean large intestine inflammatory score, combined segments: statistically significant decreased
  mean large intestine inflammatory score, middle segment: statistically significant decreased
[3]; 10 mg/kg oral, 5% DSS 9 days, vs Captisol vehicle, p<0.05
  mean large intestine inflammatory score, distal segment: statistically significant decreased
[3]; 5% DSS 9 days, SJL/J mice, oral, Compound B 10 mg/kg, FK 506 1 mg/kg
  Animals with colonic inflammation/total animals: 6/10
[3]; Compound B 10 mg/kg vs FK 506 1 mg/kg, oral, 5% DSS
  mean inflammatory score in combined colonic segments compared to FK 506 treatment: statistically significant (p<0.05) decrease

## Cc1cc(C(=O)Nc2cc(CN[C@H](C)c3ccccc3)ccc2Cl)no1 [Compound C, N-(2-chloro-5-((((1R)-1-phenylethyl)amino)methyl)phenyl)-5-methyl-3-isoxazolecarboxamide]
[4]
  absorption from the gut into the bloodstream: not to be absorbed readily
[3]; 30 mg/kg oral, 5% DSS
  inflammation scores in all parts of colon compared to vehicle (FIG. 2): reduce inflammation scores
[3]; [7]
  decrease in mean large intestine inflammatory score, combined: 30%
  decrease in mean large intestine inflammatory score, distal: 49%
  decrease in mean large intestine inflammatory score, middle: 20%
  decrease in mean large intestine inflammatory score, proximal: 15%

## C[C@@H](NCc1ccc(Cl)c(NC(=O)c2ccccn2)c1)c1ccccc1 [Compound D, N-(2-chloro-5-((((1R)-1-phenylethyl)amino)methyl)phenyl)-2-pyridinecarboxamide]
[4]
  absorption from the gut into the bloodstream: not to be absorbed readily
[3]; 30 mg/kg oral, 5% DSS
  inflammation scores in all parts of colon compared to vehicle (FIG. 2): reduce inflammation scores
[3]; 30 mg/kg oral, 5% DSS 9 days
  animals lacking inflammatory changes (colon normal): Two out of eight
[3]; [7]
  decrease in mean large intestine inflammatory score, combined: 48%
  decrease in mean large intestine inflammatory score, distal: 68%
  decrease in mean large intestine inflammatory score, middle: 29%
  decrease in mean large intestine inflammatory score, proximal: 44%
